Source: patent US20240226234A1, “WNT5A PEPTIDES FOR THE TREATMENT OF ACUTE M[…]” (W[…], priority 2021, published 2024)
No end group written: not given here. *: point of attachment. For = O=C*

Tests used:
Assay type in all cases: cell-based, human
[1] = tested on: U937 cells; assay: Cell growth assay, U937 cells; details: Foxy-5 100 μM, 72 h
Procedure: (§1) A panel of human myeloid leukemia cell lines (HL60, K562, KG1a, THP1 and U937) and HS-5 mesenchymal stromal cells lineage were cultured in Roswell Park Memorial Institute medium-1640 (RPMI; Sigma) containing 10% Fetal Bovine Serum (Gibco), glutamine (2 mM; Sigma), penicillin (100 μg/mL; Sigma), streptomycin (100 μg/mL; Sigma), and amphotericin B (0.25 μg/mL; Gibco). The cells were maintained in a humidified atmosphere at 37° C. and 5% CO2 and the experiments were performed when they reached exponential growth. For the assays, cells were seeded on a 24-well plate and treated or not with Foxy-5 for 72 hours.
(§2) Cells treated with Foxy or with vehicle were collected and cell number was evaluated by manual counting in monoculture and by microscopy with Image J software analysis in 2D culture.
(§3) Next, we evaluated the proliferation rates since this process is modulated by ROS. We treated the cells with Foxy-5 (100 μM) or with vehicle (DMSO) during 72 hours, and then cell growth was analyzed by counting the cells in monoculture, manually, or by the Image J software analysis of the 2D cultures. […] Similar results were obtained in the 2D culture system using leukemia cells and HS-5 mesenchymal stromal cells.

[2] = tested on: KG1a cells; assay: Cell growth assay, KG1a cells; details: Foxy-5 100 μM, 72 h
Procedure: as §1, §2, §3

[3] = tested on: U937 cells; assay: Cell cycle assay, U937 cells; details: 72 h
Procedure: as §1
Cells treated with Foxy or with vehicle were collected and fixed, at least, 24 hours in 70% ethanol. DNA was stained with a buffer containing iodide propidium (20 μg/mL; Sigma) and RNase A (10 μg/mL; Sigma). Cell fluorescence was detected with a FACSCalibur flow cytometer (BD). The proportions of cells in the cell cycle phases were analyzed by Modifit (Verify Software House Inc), according to DNA distributions.
As we observed a reduction in the leukemic proliferation after Foxy-5 treatment, we also analyzed the cell cycle phases. Leukemia cell lines were treated for 72 hours with Foxy-5, at doses of 50 μM and 100 μM, or vehicle, stained with the Piper buffer containing RNAse and iodeto propidium and then analyzed by flow cytometry.

[4] = tested on: HL60 cells; assay: Actin polymerization assay, HL60 cells; details: HL60, Foxy-5 100 μM 72 h
Procedure: F-actin polymerization was analyzed in treated leukemic cell lines using AlexaFluor 633-labeled phalloidin (A22284, Invitrogen) before and after CXCL12 stimulation. The cells were stimulated with CXCL12 (300 ng/ml; Peprotech) in serum-free media at 37 °C for 30 and 120 seconds. The reaction was stopped by adding 3 volumes of paraformaldehyde (3.7%) at room temperature for 10 min, then washed and permeabilized on ice. Cells were stained with 633-phalloidin (2 mg/mL). Flow cytometric data were analyzed using a FACS flow cytometer (BD) followed by FlowJo software analysis. The F-actin content obtained were normalized calculating the ratio between each stimulated cells-mean fluorescence intensity (MFI) values and the nonstimulated cells MFI from the basal levels of the control cells and expressed as fold change.
Therefore, we performed a flow cytometry analysis to evaluate whether Foxy-5 treatment would be able to disrupt actin polymerization. Leukemia cell lines were treated with Foxy-5 (100 μM) or vehicle during 72 hours, stimulated with CXCL12 (300 ng/ml) for 30 or 120 seconds, and stained with […] for detection of actin polymerization by flow cytometry. […] Thus, a significant reduction of actin polymerization was shown after Foxy-5 treatment when compared to untreated cells after 30 seconds of CXCL12 induction (P<. 001).

[5] = tested on: U937 cells; assay: Autophagy assay (acridine orange), U937 cells; details: U937, 2D culture, 72 h
Procedure: as §1
Cells treated with Foxy or with vehicle were collected and acids vesicles were measured by flow cytometry following staining with Acridine Orange (0.01 mg/mL; Sigma). Acquisition of cells was performed on a FACScalibur flow cytometer (BD) and analysis was carried out using the FlowJo software 4.
As autophagy is required for sustaining leukemia cell growth by induction of ROS production, we measured the levels of acidic granule formation by flow cytometry after Foxy-5 or vehicle treatment. […]

Foxy-5: Formylated hexapeptide fragment of WNT5A: MDGCEL (SEQ. ID. NO. 3) with methionine in position 1 as N-formyl methionine; WNT5A-mimicking compound (For-MDGCEL; listed as Homo sapiens)
reduced cell growth compared to vehicle treated cells ([1]; U937, 2D culture with HS-5 stromal cells): 1.72 fold decrease | reduced cell growth compared to vehicle treated cells ([1]; U937, monoculture): 1.75 fold decrease | reduced cell growth compared to vehicle treated cells ([2]; 2D culture with HS-5 stromal cells): 2.63 fold decrease | reduced cell growth compared to vehicle treated cells ([2]; monoculture): 1.37 fold decrease | cells in G0/G1 cell cycle phase (average) ([3]; U937, co-cultured with HS5 stromal cells, Foxy-5 50 μM): 77.37% | cells in G0/G1 cell cycle phase (average) ([3]; U937, co-cultured with HS5 stromal cells, Foxy-5 100 μM): 91.52% | cells in G0/G1 cell cycle phase (average) ([3]; U937, monoculture, Foxy-5 50 μM): 55.07% | cells in G0/G1 cell cycle phase (average) ([3]; U937, monoculture, Foxy-5 100 μM): 56.64% | F-actin content following CXCL12 stimulation ([4]; CXCL12 300 ng/ml for 30 seconds): 1.14 fold increase | F-actin content following CXCL12 stimulation ([4]; CXCL12 300 ng/ml for 120 seconds): 1.07 fold increase | autophagy (acidic granule formation, acridine orange, average) ([5]; Foxy-5 50 μM): 9.40 (range 7.68-11.00) MFI | autophagy (acidic granule formation, acridine orange, average) ([5]; Foxy-5 100 μM): 6.30 (range 4.80-8.31) MFI
